Measurements as given in US20170190671A1, “BIS(ARYL)CATECHOL DERIVATIVES AS HERBICIDES” (E I DU PONT DE NEMOURS AND COMPANY, priority 2014, published 2017).

How the values were obtained:
Assay type in all cases: in vivo
[1] = test system: barnyardgrass (Echinochloa crus-galli); assay: Test A postemergence; conditions: Echinochloa crus-galli, post-emergence, 240 h, 0 to 100 scale, read-out: Plant response rating, Barnyardgrass; for pest or weed control at 125 g/ha: 125 g ai/ha; for pest or weed control at 500 g/ha: 500 g ai/ha
How it was run: (§1)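 Injury scores run from 0, no effect, to 100, complete control, judged by eye against untreated plants roughly 10 days after treatment. Chemicals carried a surfactant in a non-phytotoxic solvent and went onto loam–sand soil preemergence or onto one- to two-leaf seedlings postemergence.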

corn (Zea mays) = assay: Test A postemergence; conditions: Zea mays, post-emergence, 240 h, 0 to 100 scale; for Corn plant response rating (crop injury, 0 = no effect, 100 = complete kill) at 125 g/ha: 125 g ai/ha; for Corn plant response rating (crop injury, 0 = no effect, 100 = complete kill) at 500 g/ha: 500 g ai/ha
How it was run: as §1

[2] = test system: pigweed (Amaranthus retroflexus); assay: Test A postemergence; conditions: Amaranthus retroflexus, post-emergence, 240 h, 0 to 100 scale, read-out: Plant response rating, Pigweed; for pest or weed control at 125 g/ha: 125 g ai/ha; for pest or weed control at 500 g/ha: 500 g ai/ha
How it was run: as §1

[3] = test system: giant foxtail (Setaria faberii); assay: Test A postemergence; conditions: Setaria faberi, post-emergence, 240 h, 0 to 100 scale, read-out: Plant response rating, Foxtail, Giant; for pest or weed control at 125 g/ha: 125 g ai/ha; for pest or weed control at 500 g/ha: 500 g ai/ha
How it was run: as §1

[4] = test system: wheat (Triticum aestivum); assay: Test A postemergence; conditions: Triticum aestivum, post-emergence, 240 h, 0 to 100 scale, read-out: Plant response rating, Wheat; for plant injury at 125 g/ha: 125 g ai/ha; for plant injury at 500 g/ha: 500 g ai/ha
How it was run: as §1

[5] = test system: barnyardgrass (Echinochloa crus-galli); assay: Test B flooded paddy; conditions: Echinochloa crus-galli, 336 h; 250 g ai/ha, Flood, 13 to 15 days, scale 0 (no effect) to 100 (complete control); read-out: Plant response rating, Barnyardgrass
How it was run: (§2)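 Compound was added to standing water 3 cm above soil, flood maintained, and plants held in a greenhouse before visual scoring against controls at 13 to 15 days.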

[6] = test system: ducksalad (Heteranthera limosa); assay: Test B flooded paddy; conditions: Heteranthera limosa, 336 h; 250 g ai/ha, Flood, 13 to 15 days, scale 0 (no effect) to 100 (complete control); read-out: Plant response rating, Ducksalad
How it was run: as §2

[7] = test system: sedge, umbrella (small-flower umbrella sedge, Cyperus difformis); assay: Test B flooded paddy; conditions: Cyperus difformis, 336 h; 250 g ai/ha, Flood, 13 to 15 days, scale 0 (no effect) to 100 (complete control); read-out: Plant response rating, Sedge, Umbrella
How it was run: as §2

rice (Oryza sativa) = assay: Test B flooded paddy; conditions: Oryza sativa, 336 h; 250 g ai/ha, Flood, 13 to 15 days, scale 0 (no effect) to 100 (complete control); read-out: Plant response rating, Rice
How it was run: as §2

kochia (Kochia scoparia) = assay: Test C postemergence; conditions: Bassia scoparia, post-emergence, Postemergence, scale 0 to 100, read-out: Plant response rating, Kochia; for pest or weed control at 31 g/ha: 31 g ai/ha; for pest or weed control at 62 g/ha: 62 g ai/ha; for pest or weed control at 125 g/ha: 125 g ai/ha
Source text: (§3) Seeds of plant species selected from blackgrass (Alopecurus myosuroides), Italian ryegrass (Lolium multiflorum), winter wheat (Triticum aestivum), galium (catchweed bedstraw, Galium aparine), corn (Zea mays), large (Lg) crabgrass (Digitaria sanguinalis), giant foxtail (Setaria faberii), johnsongrass (Sorghum halepense), lambsquarters (Chenopodium album), morningglory (Ipomoea coccinea), yellow nutsedge (Cyperus esculentus), pigweed (Amaranthus retroflexus), ragweed (common ragweed, Ambrosia elatior), soybean (Glycine max), barnyardgrass (Echinochloa crus-galli), oilseed rape (Brassica napus), waterhemp (common waterhemp, Amaranthus rudis), and velvetleaf (Abutilon theophrasti) were planted into a blend of loam soil and sand and treated preemergence with test chemicals formulated in a non-phytotoxic solvent mixture which included a surfactant.
(§4) At the same time, plants selected from these crop and weed species and also chickweed (common chickweed, Stellaria media), kochia (Kochia scoparia), and wild oat (Avena fatua), were planted in pots containing Redi-Earth® planting medium (Scotts Company, 14111 Scottslawn Road, Marysville, Ohio 43041) comprising spaghnum peat moss, vermiculite, wetting agent and starter nutrients and treated with postemergence applications of test chemicals formulated in the same manner. Plants ranged in height from 2 to 18 cm (1- to 4-leaf stage) for postemergence treatments. Treated plants and controls were maintained in a greenhouse for 13 to 15 days, after which time all species were compared to controls and visually evaluated. Plant response ratings, summarized in Table C, are based on a scale of 0 to 100 where 0 is no effect and 100 is complete control. A dash (-) response means no test result.

wild oat (Avena fatua) = assay: Test C postemergence; conditions: Avena fatua, post-emergence, Postemergence, scale 0 to 100, read-out: Plant response rating, Oat, Wild; for pest or weed control at 31 g/ha: 31 g ai/ha; for pest or weed control at 62 g/ha: 62 g ai/ha; for pest or weed control at 125 g/ha: 125 g ai/ha
Source text: as §3, §4

[8] = test system: waterhemp (common waterhemp, Amaranthus rudis); assay: Test C postemergence; conditions: Amaranthus tuberculatus, post-emergence, Postemergence, scale 0 to 100, read-out: Plant response rating, Waterhemp; for pest or weed control at 31 g/ha: 31 g ai/ha; for pest or weed control at 62 g/ha: 62 g ai/ha; for pest or weed control at 125 g/ha: 125 g ai/ha
Source text: as §3, §4

[9] = test system: barnyardgrass (Echinochloa crus-galli); assay: Test A preemergence; conditions: Echinochloa crus-galli, pre-emergence, 240 h, 0 to 100 scale, read-out: Plant response rating, Barnyardgrass; for pest or weed control at 125 g/ha: 125 g ai/ha; for pest or weed control at 500 g/ha: 500 g ai/ha
How it was run: as §1

[10] = test system: pigweed (Amaranthus retroflexus); assay: Test A preemergence; conditions: Amaranthus retroflexus, pre-emergence, 240 h; for pest or weed control at 125 g/ha: 125 g ai/ha; for pest or weed control at 500 g/ha: 500 g ai/ha
How it was run: as §1

[11] = test system: giant foxtail (Setaria faberii); assay: Test A preemergence; conditions: Setaria faberi, pre-emergence, 240 h; for pest or weed control at 125 g/ha: 125 g ai/ha; for pest or weed control at 500 g/ha: 500 g ai/ha
How it was run: as §1

[12] = 0 to 100 scale, read-out: Plant response rating, Pigweed
[13] = 0 to 100 scale, read-out: Plant response rating, Foxtail, Giant

Molecule `N#Cc1cccc(Oc2ncc(Cl)cn2)c1Oc1ncc(Cl)cn1` [Compound 3, 2,3-bis[(5-chloro-2-pyrimidinyl)oxy]benzonitrile] has a pest or weed control at 125 g/ha [1] of 90%, a pest or weed control at 500 g/ha [1] of 90% and a Corn plant response rating (crop injury, 0 = no effect, 100 = complete kill) at 125 g/ha (corn (Zea mays)) of 50%. The Corn plant response rating (crop injury, 0 = no effect, 100 = complete kill) at 500 g/ha (corn (Zea mays)) was 80%, the pest or weed control at 125 g/ha [2] was 100% and the pest or weed control at 500 g/ha [2] was 100%. The pest or weed control at 125 g/ha [3] was 90%, the pest or weed control at 500 g/ha [3] was 90% and the plant injury at 125 g/ha [4] was 60%. For the same molecule, the plant injury at 500 g/ha [4] was 80%, the pest or weed control at 250 g/ha [5] was 20% and the pest or weed control at 250 g/ha [6] was 90%. For the same molecule, the pest or weed control at 250 g/ha [7] was 90%, the plant injury at 250 g/ha (rice (Oryza sativa)) was 35% and the pest or weed control at 31 g/ha (kochia (Kochia scoparia)) was 90%. The pest or weed control at 62 g/ha (kochia (Kochia scoparia)) was 90%, the pest or weed control at 125 g/ha (kochia (Kochia scoparia)) was 95% and the pest or weed control at 250 g/ha (kochia (Kochia scoparia); 250 g ai/ha) was 95%. The pest or weed control at 31 g/ha (wild oat (Avena fatua)) was 15%, the pest or weed control at 62 g/ha (wild oat (Avena fatua)) was 30% and the pest or weed control at 125 g/ha (wild oat (Avena fatua)) was 35%. The pest or weed control at 250 g/ha (wild oat (Avena fatua); 250 g ai/ha) was 35%, the pest or weed control at 31 g/ha [8] was 75% and the pest or weed control at 62 g/ha [8] was 75%. For the same molecule, the pest or weed control at 125 g/ha [8] was 85%, the pest or weed control at 250 g/ha ([8]; 250 g ai/ha) was 98% and the pest or weed control at 125 g/ha [9] was 100%. It also gave a pest or weed control at 500 g/ha [9] of 100%, a pest or weed control at 125 g/ha [10, 12] of 100% and a pest or weed control at 500 g/ha [10, 12] of 100%. It also gave a pest or weed control at 125 g/ha [11, 13] of 100% and a pest or weed control at 500 g/ha [11, 13] of 100%.

Work on `Fc1cccc(Oc2ncc(Cl)cn2)c1Oc1ncc(Cl)cn1` [Compound 21, 2,2′-[[3-fluoro-1,2-phenylene]bis(oxy)]bis[5-chloropyrimidine]] yielded a pest or weed control at 125 g/ha [1] of 80%, a pest or weed control at 500 g/ha [1] of 90% and a Corn plant response rating (crop injury, 0 = no effect, 100 = complete kill) at 125 g/ha (corn (Zea mays)) of 50%. It also gave a Corn plant response rating (crop injury, 0 = no effect, 100 = complete kill) at 500 g/ha (corn (Zea mays)) of 60%, a pest or weed control at 125 g/ha [2] of 100% and a pest or weed control at 500 g/ha [2] of 100%. It also gave a pest or weed control at 125 g/ha [3] of 90%, a pest or weed control at 500 g/ha [3] of 90% and a plant injury at 125 g/ha [4] of 50%. The plant injury at 500 g/ha [4] was 60%, the pest or weed control at 250 g/ha [5] was 35% and the pest or weed control at 250 g/ha [6] was 100%. The pest or weed control at 250 g/ha [7] was 90%, the plant injury at 250 g/ha (rice (Oryza sativa)) was 40% and the pest or weed control at 16 g/ha (kochia (Kochia scoparia); 16 g ai/ha) was 85%. For the same molecule, the pest or weed control at 31 g/ha (kochia (Kochia scoparia)) was 90%, the pest or weed control at 62 g/ha (kochia (Kochia scoparia)) was 90% and the pest or weed control at 125 g/ha (kochia (Kochia scoparia)) was 98%. The pest or weed control at 31 g/ha (wild oat (Avena fatua)) was 0%, the pest or weed control at 62 g/ha (wild oat (Avena fatua)) was 0% and the pest or weed control at 125 g/ha (wild oat (Avena fatua)) was 40%. The pest or weed control at 31 g/ha [8] was 60%, the pest or weed control at 62 g/ha [8] was 50% and the pest or weed control at 125 g/ha [8] was 65%. For the same molecule, the pest or weed control at 125 g/ha [9] was 90%, the pest or weed control at 500 g/ha [9] was 100% and the pest or weed control at 125 g/ha ([10]; 0 to 100 scale (0 no effect, 100 complete control), read-out: Pigweed plant response rating) was 100%. The pest or weed control at 500 g/ha [10, 12] was 100%, the pest or weed control at 125 g/ha ([11]; 0 to 100 scale (0 no effect, 100 complete control), read-out: Foxtail, Giant plant response rating) was 100% and the pest or weed control at 500 g/ha [11, 13] was 100%.
